Data reported in patent US10988459B2 (priority 2015, dated 2021).

biological target: human RIP1 kinase domain (2-375) (Homo sapiens (Human), UniProt Q13546); assay: biochemical; type: biochemical; conditions: Table 5; apparent Ki (Morrison tight-binding fit); 50 nM RIP1 kinase domain, 50 uM ATP, 2 hours incubation; read-out: Ki
Procedure, shortened: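 Ki^app comes from Morrison tight-binding fits of fractional activity versus compound concentration. Activity was read as ADP production, via tracer displacement lowering fluorescence polarization (633 nm laser). Conditions: 2 h, 50 nM insect-cell-expressed enzyme, 50 uM ATP, 30 mM MgCl2, 1 mM DTT, 0.5% DMSO, pH 7.5 Hepes.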

Sequence of human RIP1 kinase domain (2-375) (Q13546 2-375): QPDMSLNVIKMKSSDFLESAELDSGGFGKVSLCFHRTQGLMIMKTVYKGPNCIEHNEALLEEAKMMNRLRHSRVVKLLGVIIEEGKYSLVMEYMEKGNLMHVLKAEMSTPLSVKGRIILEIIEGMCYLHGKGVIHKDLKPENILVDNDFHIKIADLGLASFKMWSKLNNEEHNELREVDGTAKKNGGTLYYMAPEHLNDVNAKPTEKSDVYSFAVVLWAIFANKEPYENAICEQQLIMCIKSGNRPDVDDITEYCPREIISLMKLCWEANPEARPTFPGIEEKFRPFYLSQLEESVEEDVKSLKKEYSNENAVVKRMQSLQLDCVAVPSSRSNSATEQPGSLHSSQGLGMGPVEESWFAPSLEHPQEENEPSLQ

Ki | Compound
337 nM | CN1C(=O)[C@@H](NC(=O)c2ncn(Cc3ccccc3F)n2)CCn2nc(CCN3CC(F)C3)cc21 [Example 770, 1-[(2-fluorophenyl)methyl]-N-[(6S)-2-[2-(3-fluoroazetidin-1-yl)ethyl]-4-methyl-5-oxo-7,8-dihydro-6H-pyrazolo[1,5-a][1,3]diazepin-6-yl]-1,2,4-triazole-3-carboxamide]
172 nM | COC1CN(CCc2cc3n(n2)CC[C@H](NC(=O)c2ncn(Cc4ccccc4F)n2)C(=O)N3C)C1 [Example 771, 1-[(2-fluorophenyl)methyl]-N-[(6S)-2-[-(3-methoxyazetidin-1-yl)ethyl]-4-methyl-5-oxo-7,8-dihydro-6H-pyrazolo[1,5-a][1,3]diazepin-6-yl]-1,2,4-triazole-3-carboxamide]
115 nM | CN1C(=O)[C@@H](NC(=O)c2ncn(Cc3ccccc3)n2)CCn2nc(CCN3CC(F)(F)C3)cc21 [Example 772]
189 nM | CN1C(=O)[C@@H](NC(=O)c2ncn(Cc3ccccc3F)n2)CCn2nc(CCN3CC(F)(F)C3)cc21 [Example 773, 1-[(2-fluorophenyl)methyl]-N-[(6S)-2-[2-(3,3-difluoroazetidin-1-yl)ethyl]-4-methyl-5-oxo-7,8-dihydro-6H-pyrazolo[1,5-a][1,3]diazepin-6-yl]-1,2,4-triazole-3-carboxamide]
37 nM | CN1C(=O)[C@@H](NC(=O)c2ncn(Cc3ccccc3)n2)CCn2nc(CC3CCOCC3)cc21 [Example 774, 1-benzyl-N-[(6S)-4methyl-5-oxo-2-(tetrahydropyran-4-ylmethyl)-7,8-dihydro-6H-pyrazolo[1,5-a][1,3]diazepin-6-yl]-1,2,4-triazole-3-carboxamide]
155 nM | CN1C(=O)[C@@H](NC(=O)c2ncn(Cc3ccccc3)n2)CCn2nc(CN3CCOCC3)cc21 [Example 779, (S)-1-benzyl-N-(4-methyl-2-(morpholinomethyl)-5-oxo-5,6,7,8-tetrahydro-4H-pyrazolo[1,5-a][1,3]diazepin-6-yl)-1H-1,2,4-triazole-3-carboxamide]
172 nM | COC1CN(Cc2cc3n(n2)CC[C@H](NC(=O)c2ncn(Cc4ccccc4)n2)C(=O)N3C)C1 [Example 781, (S)-1-benzyl-N-(2-((3-methoxyazetidin-1-yl)methyl)-4-methyl-5-oxo-5,6,7,8-tetrahydro-4H-pyrazolo[1,5-a][1,3]diazepin-6-yl)-1H-1,2,4-triazole-3-carboxamide]
142 nM | CN1C(=O)[C@@H](NC(=O)c2ncn(Cc3ccccc3)n2)CCn2nc(CN3CC(F)C3)cc21 [Example 782, (S)-1-benzyl-N-(2-((3-fluoroazetidin-1-yl)methyl)-4-methyl-5-oxo-5,6,7,8-tetrahydro-4H-pyrazolo[1,5-a][1,3]diazepin-6-yl)-1H-1,2,4-triazole-3-carboxamide]
112 nM | CN1C(=O)[C@@H](NC(=O)c2nc3n(n2)CCN(C)C3c2ccccc2)COc2ccccc21 (stereo partly drawn) [Example 786, 7-methyl-N-[(3S)-5-methyl-4-oxo-2,3-dihydro-1,5-benzoxazepin-3-yl]-8-phenyl-6,8-dihydro-5H-[1,2,4]trizolo [1,5-a]pyrazine-2-carboxamide]
309 nM | CN1C(=O)[C@@H](NC(=O)c2nc3n(n2)CCNC3C(F)(F)F)COc2ccccc21 (stereo partly drawn) [Example 787, N-[(3S)-5-methyl-4-oxo-2,3-dihydro-1,5-benzoxazepin-3-yl]-8-(trifluoromethyl)-5,6,7,8-tetrahydro-[1,2,4]triazolo [1,5-a]pyrazine-2-carboxamide]

same assay, conditions: human RIP1 kinase domain (2-375), 50 uM ATP, 2 hours incubation, Transcreener ADP assay; read-out: RIP1 Ki

Compound | Ki
(S)—N-(5-methyl-4-oxo-2,3,4,5-tetrahydrobenzo[b][1,4]oxazepin-3-yl)-6-(trifluoromethyl)-[1,2,4]triazolo[4,3-a]pyridine-3-carboxamide [Example 113] | 1700 nM

same assay, conditions: scale-up batches (Examples A-C); apparent Ki (Morrison tight-binding fit); 50 nM RIP1 kinase domain, 50 uM ATP; read-out: Ki

Ki | Compound
16 nM | CN1C(=O)[C@@H](NC(=O)c2ncn(Cc3ccccc3)n2)CCn2nc(C3CC3)cc21 [Example A, (S)-1-benzyl-N-(2-cyclopropyl-4-methyl-5-oxo-5,6,7,8-tetrahydro-4H-pyrazolo[1,5-a][1,3]diazepin-6-yl)-1H-1,2,4-triazole-3-carboxamide]
22 nM | Cc1cc2n(n1)CC[C@H](NC(=O)c1ncn(Cc3ccccc3)n1)C(=O)N2C [Example C, (S)-1-benzyl-N-(2,4-dimethyl-5-oxo-5,6,7,8-tetrahydro-4H-pyrazolo[1,5-a][1,3]diazepin-6-yl)-1H-1,2,4-triazole-3-carboxamide]

Compound | Ki
CN1C(=O)[C@@H](NC(=O)c2ncn(Cc3ccccc3)n2)CCn2nccc21 [Example B] | 13 nM
